Assay results as given in ChEMBL document CHEMBL5113431, “Synthesis and initial in vitro evaluation of PSMA-targeting ligands with a modified aromatic moiety at the lysine ε-nitrogen atom” (Bioorg Med Chem Lett, 2022).

biological target: Glutamate carboxypeptidase 2 (Homo sapiens, UniProt Q04609); experiment: Inhibition of PSMA in human LNCaP cell extracts using NAAG as substrate by amplex red reagent based assay; assay type: cell-free; details: not given
Sequence (Q04609 whole entry): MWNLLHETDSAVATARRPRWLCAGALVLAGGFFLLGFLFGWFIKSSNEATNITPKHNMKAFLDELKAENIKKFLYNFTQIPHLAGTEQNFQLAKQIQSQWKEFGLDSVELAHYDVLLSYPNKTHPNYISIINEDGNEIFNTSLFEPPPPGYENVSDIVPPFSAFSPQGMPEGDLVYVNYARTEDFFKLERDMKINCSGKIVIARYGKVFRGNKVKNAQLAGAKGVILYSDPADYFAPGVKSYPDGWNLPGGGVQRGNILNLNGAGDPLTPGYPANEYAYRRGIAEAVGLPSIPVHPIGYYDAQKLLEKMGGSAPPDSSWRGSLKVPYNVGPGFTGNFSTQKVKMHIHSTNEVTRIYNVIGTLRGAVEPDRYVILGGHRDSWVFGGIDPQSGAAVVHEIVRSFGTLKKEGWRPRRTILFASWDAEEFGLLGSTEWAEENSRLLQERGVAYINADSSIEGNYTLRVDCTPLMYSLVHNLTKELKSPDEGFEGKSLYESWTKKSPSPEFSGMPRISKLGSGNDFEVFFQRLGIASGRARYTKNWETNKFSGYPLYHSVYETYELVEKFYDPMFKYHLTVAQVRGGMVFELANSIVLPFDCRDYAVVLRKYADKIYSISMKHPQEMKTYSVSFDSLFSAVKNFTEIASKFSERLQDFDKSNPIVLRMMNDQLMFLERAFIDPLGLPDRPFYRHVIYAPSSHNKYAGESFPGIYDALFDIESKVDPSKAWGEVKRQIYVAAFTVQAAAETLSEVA

Row | SMILES | IC50
1 | [N-]=[N+]=NCCCNC(=O)[C@H](Cc1ccc(O)cc1)NC(=O)[C@H](Cc1ccccc1)NC(=O)CCC(=O)NCCCCCC(=O)N(CCCC[C@H](NC(=O)N[C@@H](CCC(=O)O)C(=O)O)C(=O)O)Cc1ccc(C(=O)O)cc1 | 19 nM
2 | [N-]=[N+]=NCCCNC(=O)[C@H](Cc1ccc(O)cc1)NC(=O)[C@H](Cc1ccccc1)NC(=O)CCC(=O)NCCCCCC(=O)N(CCCC[C@H](NC(=O)N[C@@H](CCC(=O)O)C(=O)O)C(=O)O)Cc1ccccc1[N+](=O)[O-] | 101 nM
3 | [N-]=[N+]=NCCCNC(=O)[C@H](Cc1ccc(O)c([N+](=O)[O-])c1)NC(=O)[C@H](Cc1ccccc1)NC(=O)CCC(=O)NCCCCCC(=O)N(CCCC[C@H](NC(=O)N[C@@H](CCC(=O)O)C(=O)O)C(=O)O)Cc1ccc(C(=O)O)cc1 | 2.1 nM
4 | [N-]=[N+]=NCCCNC(=O)[C@H](Cc1ccc(O)c([N+](=O)[O-])c1)NC(=O)[C@H](Cc1ccccc1)NC(=O)CCC(=O)NCCCCCC(=O)N(CCCC[C@H](NC(=O)N[C@@H](CCC(=O)O)C(=O)O)C(=O)O)Cc1cccc(Cl)c1 | 1.5 nM
5 | [N-]=[N+]=NCCCNC(=O)[C@H](Cc1ccccc1)NC(=O)[C@H](Cc1ccccc1)NC(=O)CCC(=O)NCCCCCC(=O)N(CCCC[C@H](NC(=O)N[C@@H](CCC(=O)O)C(=O)O)C(=O)O)Cc1ccccc1[N+](=O)[O-] | 16 nM

The next lines start with the values.

Row | IC50 | SMILES
6 | 24 nM | [N-]=[N+]=NCCCNC(=O)[C@H](Cc1ccccc1)NC(=O)[C@H](Cc1ccccc1)NC(=O)CCC(=O)NCCCCCC(=O)N(CCCC[C@H](NC(=O)N[C@@H](CCC(=O)O)C(=O)O)C(=O)O)Cc1ccc(O)cc1
7 | 51 nM | CCOc1ccc(CN(CCCC[C@H](NC(=O)N[C@@H](CCC(=O)O)C(=O)O)C(=O)O)C(=O)CCCCCNC(=O)CCC(=O)N[C@@H](Cc2ccccc2)C(=O)N[C@@H](Cc2ccccc2)C(=O)NCCCN=[N+]=[N-])cc1
8 | 88 nM | COc1ccc(CN(CCCC[C@H](NC(=O)N[C@@H](CCC(=O)O)C(=O)O)C(=O)O)C(=O)CCCCCNC(=O)CCC(=O)N[C@@H](Cc2ccccc2)C(=O)N[C@@H](Cc2ccccc2)C(=O)NCCCN=[N+]=[N-])cc1OC
9 | 23 nM | [N-]=[N+]=NCCCNC(=O)[C@H](Cc1ccccc1)NC(=O)[C@H](Cc1ccccc1)NC(=O)CCC(=O)NCCCCCC(=O)N(CCCC[C@H](NC(=O)N[C@@H](CCC(=O)O)C(=O)O)C(=O)O)Cc1cccc([N+](=O)[O-])c1
10 | 38 nM | COc1ccccc1CN(CCCC[C@H](NC(=O)N[C@@H](CCC(=O)O)C(=O)O)C(=O)O)C(=O)CCCCCNC(=O)CCC(=O)N[C@@H](Cc1ccccc1)C(=O)N[C@@H](Cc1ccccc1)C(=O)NCCCN=[N+]=[N-]
11 | 35 nM | [N-]=[N+]=NCCCNC(=O)[C@H](Cc1ccccc1)NC(=O)[C@H](Cc1ccccc1)NC(=O)CCC(=O)NCCCCCC(=O)N(CCCC[C@H](NC(=O)N[C@@H](CCC(=O)O)C(=O)O)C(=O)O)Cc1ccc([N+](=O)[O-])cc1
12 | 7 nM | [N-]=[N+]=NCCCNC(=O)[C@H](Cc1ccccc1)NC(=O)[C@H](Cc1ccccc1)NC(=O)CCC(=O)NCCCCCC(=O)N(CCCC[C@H](NC(=O)N[C@@H](CCC(=O)O)C(=O)O)C(=O)O)Cc1ccc(C(=O)O)cc1
13 | 23 nM | COc1ccc(CN(CCCC[C@H](NC(=O)N[C@@H](CCC(=O)O)C(=O)O)C(=O)O)C(=O)CCCCCNC(=O)CCC(=O)N[C@@H](Cc2ccccc2)C(=O)N[C@@H](Cc2ccccc2)C(=O)NCCCN=[N+]=[N-])c(OC)c1
14 | 112 nM | COc1ccc(CN(CCCC[C@H](NC(=O)N[C@@H](CCC(=O)O)C(=O)O)C(=O)O)C(=O)CCCCCNC(=O)CCC(=O)N[C@@H](Cc2ccccc2)C(=O)N[C@@H](Cc2ccccc2)C(=O)NCCCN=[N+]=[N-])cc1

system: not listed separately; experiment: Drug uptake in PSMA overexpressing human LNCaP cells at 4 to 40 nM by flow cytometry; assay type: ADME, cell-based; details: 0.04 µM, dose 4-40 nM

Row | Drug uptake | SMILES
15 | Active | CN1/C(=C/C=C/C=C/C2=[N+](CCCCCC(=O)NCc3cn(CCCNC(=O)[C@H](Cc4ccccc4)NC(=O)[C@H](Cc4ccccc4)NC(=O)CCC(=O)NCCCCCC(=O)N(CCCC[C@H](NC(=O)N[C@@H](CCC(=O)O)C(=O)O)C(=O)O)Cc4ccc(C(=O)O)cc4)nn3)c3ccc(S(=O)(=O)[O-])cc3C2(C)C)C(C)(C)c2cc(S(=O)(=O)O)ccc21
16 | Active | CN1/C(=C/C=C/C=C/C2=[N+](CCCCCC(=O)NCc3cn(CCCNC(=O)[C@H](Cc4ccccc4)NC(=O)[C@H](Cc4ccccc4)NC(=O)CCC(=O)NCCCCCC(=O)N(CCCC[C@H](NC(=O)N[C@@H](CCC(=O)O)C(=O)O)C(=O)O)Cc4ccccc4[N+](=O)[O-])nn3)c3ccc(S(=O)(=O)[O-])cc3C2(C)C)C(C)(C)c2cc(S(=O)(=O)O)ccc21
17 | Active | CN1/C(=C/C=C/C=C/C2=[N+](CCCCCC(=O)NCc3cn(CCCNC(=O)[C@H](Cc4ccc(O)cc4)NC(=O)[C@H](Cc4ccccc4)NC(=O)CCC(=O)NCCCCCC(=O)N(CCCC[C@H](NC(=O)N[C@@H](CCC(=O)O)C(=O)O)C(=O)O)Cc4cccc(Cl)c4)nn3)c3ccc(S(=O)(=O)[O-])cc3C2(C)C)C(C)(C)c2cc(S(=O)(=O)O)ccc21
